# Activity calls are given as the source filed them. The rule behind the calls is not given here.
# Assay: Antioxidant activity against Cu2+-induced lipid peroxidation in human plasma LDL preincubated for 1 hr before Cu2+ challenge
# Assay type: functional, cell-free
row,Compound,Activity
1,COc1cc(/C=C/C(=O)O)cc(OC)c1O,47.4 µM/L
2,O=C(/C=C/c1ccc(O)c(O)c1)O[C@@H]1C[C@](O)(C(=O)O)C[C@@H](O)[C@H]1O,156 µM/L
3,VITAMIN E,7.2 µM/L
4,O=C(O)/C=C/c1ccc(O)cc1,0.6 µM/L
5,O=C(/C=C/c1ccc(O)c(O)c1)OC(C(=O)O)C(O)C(=O)O (stereo unspecified),125 µM/L
6,O=C(O)/C=C/c1ccc(O)c(O)c1,54 µM/L
7,O=C(/C=C/c1ccc(O)c(O)c1)O[C@H](Cc1ccc(O)c(O)c1)C(=O)O,150 µM/L
8,O=C(O)c1ccccc1O,inactive
9,Oc1cc(O)c2c(c1)OC(c1ccc(O)c(O)c1)C(O)C2 (stereo unspecified),34.6 µM/L
10,COc1cc(/C=C/C(=O)O)ccc1O,8.5 µM/L
11,Oc1cc(O)c2c(c1)O[C@H](c1ccc(O)c(O)c1)[C@H](O)C2,37.1 µmol/L
12,CC(=O)Oc1ccccc1C(=O)O,inactive

# Assay: Antioxidant activity against AAPH-induced lipid peroxidation in human plasma LDL preincubated for 1 hr before AAPH challenge
# Assay type: functional, cell-free
row,Compound,Activity
1,O=C(/C=C/c1ccc(O)c(O)c1)O[C@@H]1C[C@](O)(C(=O)O)C[C@@H](O)[C@H]1O,55.3 µM/L
2,O=C(O)/C=C/c1ccc(O)c(O)c1,73.6 µM/L
3,Oc1cc(O)c2c(c1)OC(c1ccc(O)c(O)c1)C(O)C2 (stereo unspecified),156 µM/L

# Assay: Antioxidant activity against AAPH-induced lipid peroxidation in human plasma LDL at 0.2 umol/L preincubated for 1 hr before AAPH challenge
# Assay type: functional, cell-free
row,Compound,Activity
1,O=C(O)c1cc(O)c(O)c(O)c1,90 µM/L

# Assay: Antioxidant activity against AAPH-induced lipid peroxidation in human plasma LDL at 1 umol/L preincubated for 1 hr before AAPH challenge
# Assay type: functional, cell-free
row,Compound,Activity
1,O=C(O)c1cc(O)c(O)c(O)c1,30 µM/L

# Assay: Antioxidant activity against Cu2+-induced lipid peroxidation in human plasma LDL at 0.01 to 0.1 umol/L preincubated for 1 hr before Cu2+ challenge
# Assay type: functional, cell-free
row,Compound,Activity
1,O=C(O)c1cc(O)c(O)c(O)c1,Active
2,O=C(O)c1ccc(O)c(O)c1,Active

# Assay: Antioxidant activity against AAPH-induced lipid peroxidation in human plasma LDL at 0.01 to 0.1 umol/L preincubated for 1 hr before AAPH challenge
# Assay type: functional, cell-free
row,Compound,Activity
1,O=C(O)c1cc(O)c(O)c(O)c1,Active
2,O=C(O)c1ccc(O)c(O)c1,Active

# Source: ChEMBL document CHEMBL1137802, “Specific antioxidant activity of caffeoyl derivatives and other natural phenolic compounds: LDL protection against oxidation and decrease in the proinflammatory lysophosphatidylcholine production” (J Nat Prod, 2001)
